The results in this text go back to patent US9567642B2, “Methods and products related to targeted cancer therapy” (Massachusetts Institute of Technology, priority 2012, dated 2017).

Experiment [1] deals with p53 wild type or p53 mutant cells. As to the kind of experiment: Q-RT-PCR of doxorubicin induced p21 and CD80 mRNA. The experiment is classed as cell-based, human. Particulars: set of p53 wild type or p53 mutant cells, FIG. 14. On the procedure: Tumors were isolated from Kras^LA2/+; Trp53^LSL/LSL; Rosa26^CreERT2 animals, dissociated with collagenase and trypsin for one hour at 37° C., and then grown in DME plus 10% fetal bovine serum. Human cell lines were obtained from American Type Culture Collection and grown per manufacturer recommendations.
RNA was isolated from cultured cells with Trizol reagent following manufacturer protocol. Complementary DNA was generated from 1 μg total RNA using High Capacity RT-PCR Kit (Roche, quantitative PCR (Q-RT-PCR)) following manufacturer protocol. Total cDNA was diluted 20 fold in H2O and 10 μL was used in a SYBR green quantitative PCR reaction. Specifically, specific primers were diluted from 100 μM stocks to a final concentration of 0.25 μM into JumpStart Ready Taq SYBR green (Sigma) and 10 μL was mixed with 10 μL diluted cDNA and cycled 40 times with the following cycling parameters on a Step One Plus (Applied Biosystems) real-time thermocycler: […]

Experiment [2] has as its system CD80 cell surface expression. As to the kind of experiment: Flow cytometry of CD80 cell surface expression. Format: cell-based, mouse. Conditions: cells untreated, treated with tamoxifen, AdFlpO or AdCre; FIG. 11. On the procedure: Tumors were isolated from Kras^LA2/+; Trp53^LSL/LSL; Rosa26^CreERT2 animals, dissociated with collagenase and trypsin for one hour at 37° C., and then grown in DME plus 10% fetal bovine serum. Human cell lines were obtained from American Type Culture Collection and grown per manufacturer recommendations. Cells were harvested from plasticware using 2 mM EDTA solution. Approximately 1 […] cells were resuspended in % FBS in PBS and incubated with APC conjugated CD80 Ab at a 1:100 dilution (Hamster IgG2 Clone:16-10A1 from BD Biosciences). Cells were scanner on a FASCaliber flow cytometer (BD Biosciences).
A general note: In flow cytometry, cells or beads pass a laser one at a time.

On to `COc1cccc2c1C(=O)c1c(O)c3c(c(O)c1C2=O)C[C@@](O)(C(=O)CO)C[C@@H]3O[C@H]1C[C@H](N)[C@H](O)[C@H](C)O1` [doxorubicin], for which, in experiment [1], the “induction of p21 as measured by Q-RT-PCR” value was “induced”. In experiment [1] (induction of human CD80 mirrors p21 induction), the “induction of CD80 as measured by Q-RT-PCR” value is given as “induced”.
Turning to `CC/C(=C(\c1ccccc1)c1ccc(OCCN(C)C)cc1)c1ccccc1` [tamoxifen], in experiment [2], the “CD80 cell surface expression (flow cytometry histograms)” value is “not tamoxifen dependent”.
